For series [1], the target named is T1, purified recombinant CDC25C enzyme (MBP-CDC25C protein) (Homo sapiens, UniProt P30307).
T1 construct: made in house
T1 sequence (P30307 1-473): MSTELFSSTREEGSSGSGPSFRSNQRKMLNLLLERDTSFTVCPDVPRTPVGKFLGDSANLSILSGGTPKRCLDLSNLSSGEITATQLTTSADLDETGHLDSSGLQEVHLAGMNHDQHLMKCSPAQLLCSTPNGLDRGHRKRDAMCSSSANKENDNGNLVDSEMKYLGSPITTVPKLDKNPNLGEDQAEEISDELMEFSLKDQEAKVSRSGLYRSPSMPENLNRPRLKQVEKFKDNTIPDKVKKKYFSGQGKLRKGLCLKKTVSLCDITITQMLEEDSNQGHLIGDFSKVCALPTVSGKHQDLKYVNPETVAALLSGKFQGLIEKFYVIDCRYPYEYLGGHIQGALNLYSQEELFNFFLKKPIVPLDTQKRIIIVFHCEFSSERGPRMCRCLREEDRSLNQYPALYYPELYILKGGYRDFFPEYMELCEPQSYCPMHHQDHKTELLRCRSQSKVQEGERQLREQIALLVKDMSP
As to the kind of experiment: Phosphatase activity of the purified recombinant CDC25C enzyme (OMFP dephosphorylation, fluorescence). The format is biochemical. The settings on record: OMFP 500 μM, 4 hours at 30° C., three independent experiments; nested upper bounds; read-out: IC50 for the phosphatase activity of the purified recombinant CDC25-C enzyme. The method, then: i) Determination of the Phosphatase Activity of the Purified Recombinant CDC25C Enzyme:
The phosphatase activity of the MBP-CDC25C protein is evaluated through its dephosphorylation of 3-O-methylfluorescein-phosphate (OMFP) to form 3-O-methylfluorescein (OMF), determining the fluorescence of the reaction product at 475 nm. This assay can be used to identify inhibitors of the recombinant CDC25 enzyme. The preparation of the MBP-CDC25C fusion protein is described in the PCT patent application published under the number WO 01/44467.
The reaction is performed in 384-well plates in a final volume of 50 μl. The MBP-CDC25C protein (prepared as described hereinabove) is stored in the following elution buffer: 20 mM Tris-HCl pH 7.4; 250 mM NaCl; 1 mM EDTA; 1 mM dithiothreitol (DTT); 10 mM maltose. It is diluted to a concentration of 60 μM in the following reaction buffer: 50 mM Tris-HCl pH 8.2; 50 mM NaCl; 1 mM DTT; 20% glycerol. The background noise is determined using with the buffer without adding the enzyme. The products are tested at decreasing concentrations from 40 μM. The reaction is initiated by the addition of OMFP solution to a final concentration of 500 μM (prepared immediately before use from a 12.5 mM stock solution in 100% DMSO (Sigma #M2629)). After 4 hours at 30° C. in a disposable 384-well plate, the fluorescence measured at OD 475 nm is read on a Victor^2 plate reader (EGG-Wallac). The concentration that produces 50% inhibition of the enzyme reaction is calculated from three independent experiments. Only the values that fall within the linear part of the sigmoid curve are used for the linear regression analysis.

The subject of series [2] is MIA PaCa-2 (human pancreatic carcinoma cells). Nature of the series: Anti-proliferative activity, MIA PaCa-2 cells (WST1 colorimetric test). The class given is cell-based. The settings on record: MIA PaCa-2, 96 h, 96 hours treatment, up to 10 μM, nested upper bounds, read-out: IC50 for proliferation of the MIA PaCa-2 cell lines. The method, then: ii) Characterisation of Anti-Proliferative Activity:
By way of an example, the effect of treating two human cell lines MIA PaCa-2 and DU 145 with the compounds of the examples described hereinbefore will be studied. The cell lines DU 145 (human prostate carcinoma cells) and MIA PaCa-2 (human pancreatic carcinoma cells) were obtained from the American Tissue Culture Collection (Rockville, Md., USA). A 96-well plate was inoculated on day 0 with cells in 80 μl of Dulbecco's modified Eagle's medium (Gibco-Brl, Cergy-Pontoise, France) with 10% heat-inactivated foetal calf serum (Gibco-Brl, Cergy-Pontoise, France), 50,000 units/l of penicillin and 50 mg/l of streptomycin (Gibco-Brl, Cergy-Pontoise, France) and 2 mM of glutamine (Gibco-Brl, Cergy-Pontoise, France). The cells were treated on day 1 for 96 hours with increasing concentrations of each test compound up to 10 μM. At the end of this period, cell proliferation is quantified by means of a colorimetric test based on cleavage of the tetrazolium salt WST1 by the mitochondrial dehydrogenases in the viable cells, resulting in formation of formazan (Boehringer Mannheim, Meylan, France). These tests are performed in duplicate with 8 determinations per concentration tested. For each test compound, the values within the linear part of the sigmoid curve were subjected to linear regression analysis and used to estimate the IC50 inhibitory concentration. The products are solubilised in dimethylsulfoxide (DMSO) at a concentration of 10^−2 M and used in culture with a final DMSO concentration of 0.1%.

For the compound `O=c1c(NCCNc2cc(N3CCCC3)nc(N3CCCC3)n2)c(Nc2cccc(-c3nnn[nH]3)c2)c1=O` [Example 12, 3-({2-[(2,6-dipyrrolidin-1-ylpyrimidin-4-yl)amino]ethyl}amino)-4-{[3-(1H-tetrazol-5-yl)phenyl]amino}cyclobut-3-ene-1,2-dione], the IC50 in series [1] is not above 5 µM.

Take `O=c1c(NCCNc2cc(N3CCCC3)nc(N3CCCC3)n2)c(Nc2ccccc2Cl)c1=O` [Example 16, 3-[(2-chlorophenyl)amino]-4-({2-[(2,6-dipyrrolidin-1-ylpyrimidin-4-yl)amino]ethyl}amino)cyclobut-3-ene-1,2-dione]: the melting point (commonly the temperature, or range, at which the solid turns liquid) was 179 to 181 °C. Also, the IC50 in series [2] was not above 10 µM. Further, the IC50 in series [1] was not above 1 µM.

In turn, `Cl.NCCc1ccc(Nc2c(NCCNc3cc(N4CCCC4)nc(N4CCCC4)n3)c(=O)c2=O)cc1` [Example 30, 3-{[4-(2-aminoethyl)phenyl]amino}-4-({2-[(2,6-dipyrrolidin-1-ylpyrimidin-4-yl)amino]ethyl}amino)cyclobut-3-ene-1,2-dione hydrochloride] came in with a melting point of 250 to 252 °C. In addition, the IC50 in series [1] was not above 5 µM.

`O=S(=O)(O)O.O=c1c(NCCNc2cc(N3CCCC3)nc(N3CCCC3)n2)c(Nc2ccc(Cl)cc2)c1=O` [Example 9b, 3-[(4-chlorophenyl)amino]-4-({2-[(2,6-dipyrrolidin-1-ylpyrimidin-4-yl)amino]ethyl}amino)cyclobut-3-ene-1,2-dione sulfate]: the melting point was 263 to 266 °C.

`O=C(O)/C=C\C(=O)O.O=c1c(NCCNc2cc(N3CCCC3)nc(N3CCCC3)n2)c(Nc2ccc(Cl)cc2)c1=O` [Example 9d, 3-[(4-chlorophenyl)amino]-4-({2-[(2,6-dipyrrolidin-1-ylpyrimidin-4-yl)amino]ethyl}amino)cyclobut-3-ene-1,2-dione maleate] displayed a melting point of 248 to 250 °C.

In the case of `Cl.O=c1c(NCCNc2cc(N3CCCC3)nc(N3CCCC3)n2)c(Nc2ccc(Cl)cc2)c1=O`, the melting point was more than 370 °C.

`Cl.NCc1ccc(Nc2c(NCCNc3cc(N4CCCC4)nc(N4CCCC4)n3)c(=O)c2=O)cc1` [Example 28, 3-{[4-(aminomethyl)phenyl]amino}-4-({2-[(2,6-dipyrrolidin-1-ylpyrimidin-4-yl)amino]ethyl}amino)cyclobut-3-ene-1,2-dione hydrochloride] had a melting point of 224 to 226 °C. For the same compound, the IC50 in series [2] was not above 10 µM. Also, the IC50 in series [1] is not above 5 µM.

Turning to `COc1cc(Nc2c(NCCNc3cc(N4CCCC4)nc(N4CCCC4)n3)c(=O)c2=O)cc(OC)c1OC` [Example 14, 3-({2-[(2,6-dipyrrolidin-1-ylpyrimidin-4-yl)amino]ethyl}amino)-4-[(3,4,5-trimethoxyphenyl)amino]cyclobut-3-ene-1,2-dione], the melting point was 154 to 156 °C. The IC50 in series [2] was not above 10 µM. Also, in series [1], the IC50 was not above 5 µM.

Consider `O=c1c(NCCNc2cc(N3CCCC3)nc(N3CCCC3)n2)c(N2CCCCC2)c1=O` [Example 2, 3-({2-[(2,6-dipyrrolidin-1-ylpyrimidin-4-yl)amino]ethyl}amino)-4-piperidin-1-ylcyclobut-3-ene-1,2-dione], for which the melting point was more than 250 °C. For the same compound, the IC50 in series [1] is not above 5 µM.

The compound `CCCCNc1c(NCCNc2cc(N3CCCC3)nc(N3CCCC3)n2)c(=O)c1=O` [Example 3, 3-(butylamino)-4-({2-[(2,6-dipyrrolidin-1-ylpyrimidin-4-yl)amino]ethyl}amino)cyclobut-3-ene-1,2-dione] came in with a melting point of 246 to 248 °C. In addition, the IC50 in series [1] was not above 1 µM.

Compound `CNCc1ccc(Nc2c(NCCNc3cc(N4CCCC4)nc(N4CCCC4)n3)c(=O)c2=O)cc1.Cl` [Example 22, 3-({2-[(2,6-dipyrrolidin-1-ylpyrimidin-4-yl)amino]ethyl}amino)-4-({4-[(methylamino)methyl]phenyl}amino)cyclobut-3-ene-1,2-dione hydrochloride] gave a melting point of more than 260 °C. In addition, the IC50 in series [2] was not above 10 µM. Besides, in series [1], the IC50 is not above 5 µM.

Turning to `O=c1c(NCCNc2cc(N3CCCC3)nc(N3CCCC3)n2)c(Nc2ccccc2)c1=O` [Example 35, 3-anilino-4-({2-[(2,6-dipyrrolidin-1-ylpyrimidin-4-yl)amino]ethyl}amino)cyclobut-3-ene-1,2-dione], the IC50 in series [2] was not above 10 µM; in series [1] it was not above 1 µM.

As for `O=P(O)(O)O.O=c1c(NCCNc2cc(N3CCCC3)nc(N3CCCC3)n2)c(Nc2ccc(Cl)cc2)c1=O` [Example 9c, 3-[(4-chlorophenyl)amino]-4-({2-[(2,6-dipyrrolidin-1-ylpyrimidin-4-yl)amino]ethyl}amino)cyclobut-3-ene-1,2-dione phosphate], the melting point lay within 275 to 278 °C.

Turning to `O=c1c(NCCNc2cc(N3CCCC3)nc(N3CCCC3)n2)c(N2CCOCC2)c1=O` [Example 4, 3-({2-[(2,6-dipyrrolidin-1-ylpyrimidin-4-yl)amino]ethyl}amino)-4-morpholin-4-ylcyclobut-3-ene-1,2-dione], the melting point was 242 to 244 °C. Also, the IC50 in series [1] is not above 5 µM.

The compound `CC(=O)Nc1ccc(Nc2c(NCCNc3cc(N4CCCC4)nc(N4CCCC4)n3)c(=O)c2=O)cc1` [Example 13, N-(4-{[2-({2-[(2,6-dipyrrolidin-1-ylpyrimidin-4-yl)amino]ethyl}amino)-3,4-dioxocyclobut-1-en-1-yl]amino}phenyl)acetamide] yielded a melting point of 263 to 265 °C. The IC50 in series [1] is not above 5 µM.

Turning to `CN(CCNc1cc(N2CCCC2)nc(N2CCCC2)n1)CCNc1c(O)c(=O)c1=O` [Example 7, 3-({2-[{2-[(2,6-dipyrrolidin-1-ylpyrimidin-4-yl)amino]ethyl}(methyl)amino]ethyl}amino)-4-hydroxycyclobut-3-ene-1,2-dione], the IC50 in series [1] was not above 5 µM.

In the case of `COc1c(NCCNc2cc(N3CCCC3)nc(N3CCCC3)n2)c(=O)c1=O` [Example 1, 3-({2-[(2,6-dipyrrolidin-1-ylpyrimidin-4-yl)amino]ethyl}amino)-4-methoxycyclobut-3-ene-1,2-dione], the melting point fell in the range of 116 to 118 °C. Moreover, the IC50 in series [1] was not above 5 µM.

Turning to `O=c1c(NCCNc2cc(N3CCCC3)nc(N3CCCC3)n2)c(Nc2ccc(O)cc2)c1=O` [Example 27, 3-({2-[(2,6-dipyrrolidin-1-ylpyrimidin-4-yl)amino]ethyl}amino)-4-[(4-hydroxyphenyl)amino]cyclobut-3-ene-1,2-dione], the melting point was more than 260 °C. Besides, the IC50 in series [1] was not above 15 µM.

`COc1c(NCCN(C)CCNc2cc(N3CCCC3)nc(N3CCCC3)n2)c(=O)c1=O` [Example 6] gave a melting point of 132 to 134 °C. In series [1], the IC50 was not above 5 µM.

Compound `O=c1c(NCCNc2cc(N3CCCC3)nc(N3CCCC3)n2)c(Nc2ccc(Cl)cc2)c1=O` [Example 9, 3-[(4-chlorophenyl)amino]-4-({2-[(2,6-dipyrrolidin-1-ylpyrimidin-4-yl)amino]ethyl}amino)cyclobut-3-ene-1,2-dione] displayed a melting point of 251 to 253 °C. Besides, the IC50 in series [1] was not above 1 µM.
